Measured values as given in article PMC6125496 (Antimicrobial Agents and Chemotherapy, 2018).
Converted amounts (≈) assume the structure as drawn.

Legend:
[1] = test system: human renal proximal tubular epithelial cells (HRPTEpiC); assay: Multiplexed HRPTEpiC cytotoxicity assay (cell viability, KIM-1, HSP27)
Experimental: The multiplexed cytotoxicity assay on human renal proximal tubule epithelial cells (HRPTEpiC) was conducted by Eurofins Panlabs (Eurofins Panlabs, Inc., St. Charles, MO) by using an image-based high content analysis (HCA) technique where cells were fixed and stained with nuclear dye to visualize nuclei and fluorescently labeled antibodies to detect drug-induced cellular injury and cellular stress arising from oxidative and chemical stress. Cells were seeded into 384-well plates and grown in RPMI 1640, 10% fetal bovine serum (FBS), 2 mM L-alanyl-L-glutamine, and 1 mM sodium pyruvate in a humidified atmosphere of 5% CO2 at 37°C. […] Compounds were serially diluted 3.16-fold and assayed over 10 concentrations in a final assay concentration of 0.5% dimethyl sulfoxide (DMSO) from 100 μM to 3.7 nM. At the same time, a time zero untreated cell plate was generated. After a 48-h incubation period, cells were fixed and stained with fluorescently labeled antibodies and nuclear dyed to allow visualization of nuclei, injured cells, and stressed cells. Injured cells were detected using a KIM-1 (kidney injury molecule 1) antibody. Stressed cells were detected using an anti-HSP27 (heat shock protein 27) antibody. Cell proliferation was measured by the signal intensity of the incorporated nuclear dye. The cell proliferation assay output was referred to as the relative cell count. To determine the cell proliferation endpoint, the cell proliferation data output was transformed to percentage of control (POC) using the following formula: POC = relative cell count in compound wells/relative cell count in vehicle wells × 100. The signal intensity of the incorporated cellular stress and injury measurements were normalized with the relative cell count from each well. Automated fluorescence microscopy was carried out using a Molecular Devices ImageXpress micro-imager, and images were collected with a 4× objective.

[2] = test system: Serratia marcescens DSM 17174; assay: microbe, parasite or virus in culture; conditions: Serratia marcescens, DSM17174
From the text: (§1) Reference strains are from the German Collection of Microorganisms and Cell Cultures (DSMZ), the American Type Culture Collection (ATCC), the National Collection of Type Cultures (NCTC), and the Medical and Molecular Microbiology, Faculty of Science and Medicine, University of Fribourg, Switzerland.

[3] = test system: Enterococcus faecium DSM 20477; assay: microbe, parasite or virus in culture; conditions: Enterococcus faecium, DSM20477
From the text: as §1

[4] = test system: Ciprofloxacin-resistant E. coli (19); assay: microbe, parasite or virus in culture; conditions: Escherichia coli
From the text: as §1

[5] = test system: Escherichia coli BAA-2469; assay: microbe, parasite or virus in culture; conditions: Escherichia coli, BAA2469, Ambler class B carbapenemase; NDM-1
From the text: as §1

[6] = test system: Pseudomonas aeruginosa DSM 1117; assay: microbe, parasite or virus in culture; conditions: Pseudomonas aeruginosa, DSM1117
From the text: as §1

[7] = test system: Escherichia coli BAA-2471; assay: microbe, parasite or virus in culture; conditions: Escherichia coli, BAA2471
From the text: as §1

[8] = test system: Enterococcus faecalis DSM 2570; assay: microbe, parasite or virus in culture; conditions: Enterococcus faecalis, DSM2570
From the text: as §1

[9] = test system: Citrobacter freundii (16); assay: microbe, parasite or virus in culture; conditions: Citrobacter freundii
From the text: as §1

[10] = test system: Ciprofloxacin-resistant K. pneumoniae (27); assay: microbe, parasite or virus in culture; conditions: Klebsiella pneumoniae
From the text: as §1

[11] = test system: Citrobacter freundii DSM 30039; assay: microbe, parasite or virus in culture; conditions: Citrobacter freundii, DSM30039
From the text: as §1

Escherichia coli (101) = assay: microbe, parasite or virus in culture; conditions: Escherichia coli
From the text: as §1

[12] = test system: Enterobacter cloacae (13); assay: microbe, parasite or virus in culture; conditions: Enterobacter cloacae
From the text: as §1

[13] = test system: Acinetobacter baumannii ATCC 19606; assay: microbe, parasite or virus in culture; conditions: Acinetobacter baumannii, ATCC19606
From the text: as §1

[14] = test system: Staphylococcus aureus ATCC 29213; assay: microbe, parasite or virus in culture; conditions: Staphylococcus aureus, ATCC29213
From the text: as §1

[15] = test system: Enterobacter cloacae DSM 14563; assay: microbe, parasite or virus in culture; conditions: Enterobacter cloacae, DSM14563
From the text: as §1

[16] = test system: Escherichia coli ATCC 25922; assay: microbe, parasite or virus in culture; conditions: Escherichia coli, ATCC25922
From the text: as §1

[17] = test system: Klebsiella pneumoniae NCTC 13442; assay: microbe, parasite or virus in culture; conditions: Klebsiella pneumoniae, NCTC13442
From the text: as §1

[18] = test system: Enterobacter aerogenes DSM 30053; assay: microbe, parasite or virus in culture; conditions: Klebsiella aerogenes, DSM30053
From the text: as §1

[19] = test system: Klebsiella pneumoniae NCTC 13443; assay: microbe, parasite or virus in culture; conditions: Klebsiella pneumoniae, NCTC13443
From the text: as §1

[20] = test system: Klebsiella pneumoniae NCTC 13439; assay: microbe, parasite or virus in culture; conditions: Klebsiella pneumoniae, NCTC13439
From the text: as §1

[21] = test system: Klebsiella pneumoniae ATCC BAA-1905; assay: microbe, parasite or virus in culture; conditions: Klebsiella pneumoniae, ATCCBAA1905
From the text: as §1

[22] = test system: Citrobacter kozeri DSM 4595; assay: microbe, parasite or virus in culture; conditions: Citrobacter, DSM4595
From the text: as §1

[23] = test system: Streptococcus pneumoniae DSM 2134; assay: microbe, parasite or virus in culture; conditions: Streptococcus pneumoniae, DSM2134
From the text: as §1

[24] = test system: Klebsiella pneumoniae ATCC 43816; assay: microbe, parasite or virus in culture; conditions: Klebsiella pneumoniae, ATCC43816
From the text: as §1

[25] = test system: Gentamicin-resistant K. pneumoniae (16); assay: microbe, parasite or virus in culture; conditions: Klebsiella pneumoniae
From the text: as §1

[26] = test system: Stenotrophomonas maltophilia ATCC 13637; assay: microbe, parasite or virus in culture; conditions: Stenotrophomonas maltophilia, ATCC13637
From the text: as §1

[27] = test system: Klebsiella pneumoniae (56); assay: microbe, parasite or virus in culture; conditions: Klebsiella pneumoniae
From the text: as §1

[28] = test system: Klebsiella pneumoniae ATCC BAA-1904; assay: microbe, parasite or virus in culture; conditions: Klebsiella pneumoniae, ATCCBAA1904
From the text: as §1

[29] = test system: Staphylococcus epidermidis ATCC 12228; assay: microbe, parasite or virus in culture; conditions: Staphylococcus epidermidis, ATCC12228
From the text: as §1

SMILES | MIC [2] [µg/mL] | MIC [3] [µg/mL] | MIC [5] [µg/mL] | MIC [6] [µg/mL] | MIC [7] [µg/mL] | MIC [8] [µg/mL] | MIC [11] [µg/mL] | MIC [13] [µg/mL] | MIC [14] [µg/mL] | MIC [15] [µg/mL] | MIC [16] [µg/mL] | MIC [17] [µg/mL] | MIC [18] [µg/mL] | MIC [19] [µg/mL] | MIC [20] [µg/mL] | MIC [21] [µg/mL] | MIC [22] [µg/mL] | MIC [23] [µg/mL] | MIC [24] [µg/mL] | MIC [26] [µg/mL] | further results
CNC(C)C1CCC(N)C(OC2C(N)CC(N)C(OC3OCC(C)(O)C(NC)C3O)C2O)O1 (stereo not shown) [GEN, gentamicin] | 0.5 (≈ 1.05 µM) | 8 (≈ 16.8 µM) | > 64 | 1 (≈ 2.09 µM) | > 64 | 16 (≈ 33.5 µM) | 0.5 (≈ 1.05 µM) | 16 (≈ 33.5 µM) | 0.5 (≈ 1.05 µM) | 0.5 (≈ 1.05 µM) | 1 (≈ 2.09 µM) | 0.25 (≈ 0.523 µM) | 0.25 (≈ 0.523 µM) | > 64 | 1 (≈ 2.09 µM) | 32 (≈ 67 µM) | 0.25 (≈ 0.523 µM) | 8 (≈ 16.8 µM) | 0.25 (≈ 0.523 µM) | 4 (≈ 8.38 µM) | cytotoxicity to HRPTEpiC (in words) ([1]; concentrations up to 100 μM, 48-h incubation): not cytotoxic; concentration inducing a significant (5-fold) increase of HSP27 level ([1]; tested up to 100 μM): 22.4 µM; concentration inducing a significant (5-fold) increase of KIM-1 level ([1]; tested up to 100 μM): > 100 µM; MIC50 [4]: 0.5 µg/mL (≈ 1.05 µM); MIC90 [4]: > 32 µg/mL; MIC50 [9]: 1 µg/mL (≈ 2.09 µM); MIC90 [9]: > 32 µg/mL; MIC50 [10]: 32 µg/mL (≈ 67 µM); MIC90 [10]: > 32 µg/mL; MIC50 (Escherichia coli (101)): 1 µg/mL (≈ 2.09 µM); MIC90 (Escherichia coli (101)): 2 µg/mL (≈ 4.19 µM); MIC50 [12]: 32 µg/mL (≈ 67 µM); MIC90 [12]: > 32 µg/mL; MIC50 [25]: > 32 µg/mL; MIC90 [25]: > 32 µg/mL; MIC50 [27]: 1 µg/mL (≈ 2.09 µM); MIC90 [27]: > 32 µg/mL; MIC [28]: 16 µg/mL (≈ 33.5 µM); MIC [29]: ≤ 0.125 µg/mL
C[C@@H](O)[C@H]1C(=O)N2C(C(=O)O)=C(SCCN=CN)C[C@H]12 [IPM, imipenem] | 2 (≈ 6.68 µM) | 4 (≈ 13.4 µM) | 32 (≈ 107 µM) | 2 (≈ 6.68 µM) | > 64 | 1 (≈ 3.34 µM) | 1 (≈ 3.34 µM) | 0.5 (≈ 1.67 µM) | ≤ 0.125 | 1 (≈ 3.34 µM) | 0.25 (≈ 0.835 µM) | 16 (≈ 53.4 µM) | 2 (≈ 6.68 µM) | > 64 | 32 (≈ 107 µM) | > 64 | 4 (≈ 13.4 µM) | ≤ 0.125 | 1 (≈ 3.34 µM) | > 64 | MIC [28]: 32 µg/mL (≈ 107 µM); MIC [29]: ≤ 0.125 µg/mL
